pKd: −log10 of the molar value. Entries after “also recorded” stand apart in the source; their conditions may differ.
Experiments:
456 kinases = assay: Kinome scan of 456 kinases (scanMAX); format: binding; conditions: screened at 1 μM
Procedure: (§1) The kinome profiling of compound 9 was conducted by DiscoveRx. In total, 456 kinases were assayed (scanMAX). For most assays, kinase-tagged T7 phage strains were grown in parallel in 24-well blocks in an E. coli host derived from the BL21 strain. E. coli were grown to log-phase and infected with T7 phage from a frozen stock (multiplicity of infection=0.4) and incubated with shaking at 32° C. until lysis (90-150 minutes). The lysates were centrifuged (6000 g) and filtered (0.2 μm) to remove cell debris. The remaining kinases were produced in HEK-293 cells and subsequently tagged with DNA for qPCR detection. […] The liganded beads were blocked with excess biotin and washed with blocking buffer (SeaBlock (Pierce), 1% BSA, 0.05% Tween 20, 1 mM DTT) to remove unbound ligand and to reduce non-specific phage binding. […] Test compounds were prepared as 40× stocks in 100% DMSO and directly diluted into the assay. All reactions were performed in polypropylene 384-well plates in a final volume of 0.04 ml. […] The kinase concentration in the eluates was measured by qPCR. Compound 114 was screened at 1 μM, and results for primary screen binding interactions were reported as % of control (PoC). PoC=(test compound signal−positive control signal)/(DMSO signal−positive control signal). […] KD values were determined with a standard dose-response curve using the Hill equation.

[1] = In vitro reactivity towards glutathione (GSH); format: physicochemical; conditions: after 24 h with 5 mM GSH, pH 7.4, 37° C.
Procedure: […] Reaction scheme and structures of modified analogs. b. LC chromatogram of the reaction mixture after t=0 h and t=14 h. […] 9-methylcarbazole (tret=2.44 min) was used as internal control. c. Concentration of compound 9 during the course of the reaction as determined by integration of the absorption peaks (at 310 nm) of compound 9 at tret=1.78 min. The average of two independent experiments is shown, SD is <5% for all data points. d. Aurora A inhibition in the HTRF biochemical assay. (d) Cellular pThr288 Aurora-A levels of cells incubated with 9 or rac-92 overnight at the indicated concentrations. The experiment was repeated twice and the error bars represent SD. […] Numbers represent average IC50±SD of two independent experiments.

HeLa Kyoto cells = assay: DNA content analysis by flow cytometry; format: cell-based, human; conditions: 48 h, 9 even at 10 μM
Procedure: HeLa Kyoto cells were cultured in high-glucose DMEM with GlutaMAX (Life Technologies) media supplemented with 10% fetal calf serum (FCS) in a humidified 5% CO2 incubator at 37° C. For plasmid transfections, cells were seeded at 80-90% confluence. 4 μg of plasmid DNA in 100 μl OptiMEM and 4 μl of Lipofectamine 2000 (Life Technologies) in 100 μl OptiMEM were incubated in parallel for 5 minutes, mixed for 20 minutes and added to each well. All Aurora A clones were constructed using full-length Aurora A as a template with appropriate PCR primer pairs. […] GFP-Aurora AR137A and GFP-Aurora AW277A were engineered using a site directed mutagenesis kit (Agilent Technologies, no. 210515) with appropriate primers. For determining the mitotic index and the chromosome misalignment phenotype, cells were incubated with various concentrations of compounds for 20 h before analysis. Cells were likewise treated with 0.25 μM MLN8237 (Selleckchem, no. S1133) or 5 μM ZM447439 (Selleckchem, no. S1103). For flow cytometry analysis, 50 nM MLN8037 and 2.5 μM ZM447439 were used. […] To assess the impact of compound 9 on cell cycle progression, DNA content was analyzed after propidium iodide staining using FACS (BD Accuri C6 flow cytometer).

[2] = biological target: T1, Aurora B (without INCENP) (Homo sapiens, UniProt Q96GD4); assay: Active site directed binding competition assay, KD (DiscoveRx)
T1 construct: purchased DiscoveRx scanMAX
Procedure: as §1, with “signal). PoC values at 1 μM 9 for all kinases were visualized using TREEspot (DiscoveRx).” for “signal).”

Aurora C = biological target: T2, Aurora C (Homo sapiens, UniProt Q9UQB9); assay: as above
T2 construct: purchased DiscoveRx scanMAX
T2 sequence (Q9UQB9 1-309): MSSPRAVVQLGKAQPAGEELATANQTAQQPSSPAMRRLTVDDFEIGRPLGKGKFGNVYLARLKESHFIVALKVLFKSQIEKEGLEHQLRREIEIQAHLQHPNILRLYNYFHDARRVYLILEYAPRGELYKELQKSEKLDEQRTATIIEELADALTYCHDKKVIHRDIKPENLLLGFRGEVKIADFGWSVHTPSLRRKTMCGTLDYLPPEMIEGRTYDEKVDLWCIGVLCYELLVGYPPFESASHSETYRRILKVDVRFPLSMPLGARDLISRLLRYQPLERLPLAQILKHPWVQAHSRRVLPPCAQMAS
Procedure: as §1, with “signal). PoC values at 1 μM 9 for all kinases were visualized using TREEspot (DiscoveRx).” for “signal).”

Aurora A = biological target: T3, Aurora A (Homo sapiens, UniProt O14965); assay: as above; conditions: free Aurora A
T3 sequence (O14965 1-403): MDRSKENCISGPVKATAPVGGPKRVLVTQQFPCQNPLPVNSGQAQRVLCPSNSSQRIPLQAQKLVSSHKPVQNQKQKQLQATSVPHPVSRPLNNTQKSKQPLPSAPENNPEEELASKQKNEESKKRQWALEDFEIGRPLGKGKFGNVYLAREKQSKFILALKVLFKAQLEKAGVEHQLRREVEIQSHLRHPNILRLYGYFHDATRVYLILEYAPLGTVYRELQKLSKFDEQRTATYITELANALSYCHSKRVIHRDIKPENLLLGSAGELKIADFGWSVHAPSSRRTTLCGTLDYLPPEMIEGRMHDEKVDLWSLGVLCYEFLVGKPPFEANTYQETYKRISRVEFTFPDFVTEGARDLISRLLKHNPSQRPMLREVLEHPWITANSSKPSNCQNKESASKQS
Procedure: as §1, with “signal). PoC values at 1 μM 9 for all kinases were visualized using TREEspot (DiscoveRx).” for “signal).”

[3] = tested on: Aurora A localization, HeLa Kyoto cells; assay: Aurora A localization at the mitotic spindle (immunofluorescence); format: cell-based, human; conditions: overnight
Procedure: HeLa Kyoto cells were cultured in high-glucose DMEM with GlutaMAX (Life Technologies) media supplemented with 10% fetal calf serum (FCS) in a humidified 5% CO2 incubator at 37° C. For plasmid transfections, cells were seeded at 80-90% confluence. 4 μg of plasmid DNA in 100 μl OptiMEM and 4 μl of Lipofectamine 2000 (Life Technologies) in 100 μl OptiMEM were incubated in parallel for 5 minutes, mixed for 20 minutes and added to each well. All Aurora A clones were constructed using full-length Aurora A as a template with appropriate PCR primer pairs. […] GFP-Aurora AR137A and GFP-Aurora AW277A were engineered using a site directed mutagenesis kit (Agilent Technologies, no. 210515) with appropriate primers. For determining the mitotic index and the chromosome misalignment phenotype, cells were incubated with various concentrations of compounds for 20 h before analysis. Cells were likewise treated with 0.25 μM MLN8237 (Selleckchem, no. S1133) or 5 μM ZM447439 (Selleckchem, no. S1103). For flow cytometry analysis, 50 nM […] and 2.5 μM ZM447439 were used. For rescue experiments, HeLa Kyoto cells were first transfected with GFP-Aurora A, GFP-Aurora AR137A or GFP-Aurora AW277A for 20 h, followed by incubation with 9 for another 20 h before cells were fixed with cold methanol and stained. To assess the impact of compound 9 on cell cycle progression, DNA content was analyzed after propidium iodide staining using FACS (BD Accuri C6 flow cytometer).
Secondary antibodies were anti-mouse conjugated to Alexa488 or Alexa568, as well as anti-rabbit conjugated to Alexa488 or Alexa568, all used at 1:500 (Invitrogen). Confocal images were acquired on a Zeiss LSM 710 confocal microscope equipped with a Axiocam MRm (B/VVW) CCD camera using a 63×NA 1.0 oil objective and processed in ImageJ and Adobe Photoshop, maintaining relative image intensities within a series.

T1 sequence (Q96GD4 whole entry): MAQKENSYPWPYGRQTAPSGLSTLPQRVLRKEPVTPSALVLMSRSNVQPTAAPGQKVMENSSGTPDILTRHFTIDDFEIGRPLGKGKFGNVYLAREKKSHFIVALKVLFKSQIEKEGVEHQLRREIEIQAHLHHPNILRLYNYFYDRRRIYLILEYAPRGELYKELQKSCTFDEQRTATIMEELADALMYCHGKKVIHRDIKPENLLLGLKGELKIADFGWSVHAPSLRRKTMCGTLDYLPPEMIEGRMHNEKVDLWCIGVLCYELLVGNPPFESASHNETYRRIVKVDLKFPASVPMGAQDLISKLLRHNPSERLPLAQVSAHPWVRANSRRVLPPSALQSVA

conversion to GSH adduct [1]: 50%
pKd [2]: 8.00
pKd (Aurora C): 7.96
pKd (Aurora A): 8.30
Structure (SMILES): CCc1ccc(N=C2SC(=Cc3ccnc(Nc4ccc(C(=O)O)cn4)c3)C(=O)N2C)cc1 [Compound 9]
kinome selectivity (456 kinases): remarkably selective
accumulation of cells with 8N and 16N DNA contents (HeLa Kyoto cells): did not occur
Aurora A localization at spindle microtubules and centrosomes [3]: notably displaced from the spindle microtubules; also recorded: impairs Aurora A localization at the spindle microtubules

Source: patent US20190352297A1, “SELECTIVE AURORA A KINASE INHIBITORS” (UNIVERSITAT BERN, priority 2017, published 2019)
